# pIC50: −log10 of the molar value. Where a name gives a salt, the structure may show the parent alone. Read-outs that look alike come from different tables or passages of the source.
# Tested on: NF-κB
# Assay: NF-κB luciferase reporter assay in A549/NF-κBLuc cells stimulated with IL-1β
# Assay type: cell-based, human
# Settings: compound added 1 hour before IL-1β, then 3 hours incubation, luciferase activity, read-out: NF-κB Inhibitory Activity (IC50)
# Method: Effect on Human Lung Cancer-Derived Cell A549 (A549/NF-κBluc) Containing Stably Introduced Luciferase Plasmid (pNFκB-Luc, Stratagene. U.S.A.) Regulated by NF-κB Binding Sequence
# Using Lipofectamine (Lifetech Oriental, Tokyo), pNFκB-Luc and pSV2neo (Clontech, U.S.A.) were co-transfected into the A549 cell (ATCC CCL185) and G418 sulfate (1 mg/ml, Lifetech Oriental) was added to the culture medium to select cells containing stably introduced pNFκB-Luc A549/NF-κBLuc.
# The compound obtained in Examples each was added to A549/NF-κBLuc and one hour after that, IL-1β capable of activating NF-κB was added. The incubation was further continued for 3 hours.
# NF-κB Inhibitory Activity (IC50) of Substituted Benzoic Acid Derivitives: […]
# [1] = Homo sapiens, A549, A549/NF-κBLuc cells
SMILES,pIC50 [1],pIC50 (A549/NF-κBLuc cells)
"COC1=C(OC)C(=O)C(Cc2cccc(C(=O)N3CCCCC3)c2OCc2ccccc2)=C(C)C1=O [Example 64, N-[3-(5,6-Dimethoxy-3-methyl-1,4-benzoquinon-2-yl)methyl-2-benzyloxybenzoyl]piperidine]",4.48,
"COC1=C(OC)C(=O)C(Cc2cccc(C(=O)N3CCOCC3)c2OCc2ccccc2)=C(C)C1=O [Example 65, N-[3-(5,6-Dimethoxy-3-methyl-1,4-benzoquinon-2-yl)methyl-2-benzyloxybenzoyl]morpholine]",4.43,
"COC1=C(OC)C(=O)C(Cc2ccc(OC(C)=O)c(C(=O)Nc3ccc(OC)cc3)c2)=C(C)C1=O [Example 70, N-[5-(5,6-Dimethoxy-3-methyl-1,4-benzoquinon-2-yl)methyl-2-acetoxybenzoyl]-4-methoxyaniline]",4.82,
"COC1=C(OC)C(=O)C(Cc2cccc(C(=O)N3CCCCC3)c2OC(C)=O)=C(C)C1=O [Example 71, N-[3-(5,6-Dimethoxy-3-methyl-1,4-benzoquinon-2-yl)methyl-2-acetoxybenzoyl]piperidine]",4.44,
"COC1=C(OC)C(=O)C(Cc2cccc(C(=O)N3CCOCC3)c2OC(C)=O)=C(C)C1=O [Example 72, N-[3-(5,6-Dimethoxy-3-methyl-1,4-benzoquinon-2-yl)methyl-2-acetoxybenzoyl]morpholine]",4.37,
"COC1=C(OC)C(=O)C(Cc2cccc(C(=O)Nc3ccc(OC)cc3)c2OC(C)=O)=C(C)C1=O [Example 73, N-[3-(5,6-Dimethoxy-3-methyl-1,4-benzoquinon-2-yl)methyl-2-acetoxybenzoyl]-4-methoxyaniline]",4.51,
"COC1=C(OC)C(=O)C(Cc2ccc(O)c(C(=O)Nc3ccc(OC)cc3)c2)=C(C)C1=O [Example 76, N-[5-(5,6-Dimethoxy-3-methyl-1,4-benzoquinon-2-yl)methyl-2-hydroxybenzoyl]-4-methoxyaniline]",5.15,
"COC1=C(OC)C(=O)C(Cc2cccc(C(=O)Nc3ccc(OC)cc3)c2O)=C(C)C1=O [Example 79, N-[3-(5,6-Dimethoxy-3-methyl-1,4-benzoquinon-2-yl)methyl-2-hydroxybenzoyl]-4-methoxyaniline]",4.57,
"COC1=C(OC)C(=O)C(Cc2ccc(OC)c(C(=O)N3CCCCC3)c2)=C(C)C1=O [Example 80, N-[5-(5,6-Dimethoxy-3-methyl-1,4-benzoquinon-2-yl)methyl-2-methoxybenzoyl]piperidine]",4.09,
"COC1=C(OC)C(=O)C(Cc2ccc(OC(C)C)c(C(=O)N3CCOCC3)c2)=C(C)C1=O [Example 84, N-[5-(5,6-Dimethoxy-3-methyl-1,4-benzoquinon-2-yl)methyl-2-isopropoxybenzoyl]morpholine]",4.20,
COC1=C(OC)C(=O)C(Cc2ccc(OCc3cccnc3)c(C(=O)N3CCCCC3)c2)=C(C)C1=O [Example 92 (HCl)],,4.34
"COC1=C(OC)C(=O)C(Cc2ccc(OCc3cccnc3)c(C(=O)Nc3ccc(OC)cc3)c2)=C(C)C1=O [Example 94, N-[5-(5,6-Dimethoxy-3-methyl-1,4-benzoquinon-2-yl)methyl-2-(3-pyridylmethyloxy)benzoyl]-4-methoxyaniline]",4.35,
"COC1=C(OC)C(=O)C(Cc2ccc(OCC(=O)OC(C)(C)C)c(C(=O)N3CCCCC3)c2)=C(C)C1=O [Example 104, N-[5-(5,6-Dimethoxy-3-methyl-1,4-benzoquinon-2-yl)methyl-2-(tert-butoxycarbonylmethyloxy)benzoyl]piperidine]",4.54,
"COC1=C(OC)C(=O)C(Cc2ccc(OC(C)=O)c(C(=O)Nc3cc(OC)c(OC)c(OC)c3)c2)=C(C)C1=O [Example 106, N-[5-(5,6-Dimethoxy-3-methyl-1,4-benzoquinon-2-yl)methyl-2-acetoxybenzoyl]-3,4,5-trimethoxyaniline]",4.15,
"COC1=C(OC)C(=O)C(Cc2ccc(OC(C)=O)c(C(=O)Nc3ccc(OC)c(OC)c3)c2)=C(C)C1=O [Example 107, N-[5-(5,6-Dimethoxy-3-methyl-1,4-benzoquinon-2-yl)methyl-2-acetoxybenzoyl]-3,4-dimethoxyaniline]",4.08,
"COC1=C(OC)C(=O)C(Cc2ccc(OC(C)=O)c(C(=O)Nc3ccc(C(C)=O)cc3)c2)=C(C)C1=O [Example 108, N-[5-(5,6-Dimethoxy-3-methyl-1,4-benzoquinon-2-yl)methyl-2-acetoxybenzoyl]-4-acetylaniline]",4.17,
"COC1=C(OC)C(=O)C(Cc2ccc(OC(C)=O)c(C(=O)Nc3ccc(Cl)cc3)c2)=C(C)C1=O [Example 109, N-[5-(5,6-Dimethoxy-3-methyl-1,4-benzoquinon-2-yl)methyl-2-acetoxybenzoyl]-4-chloroaniline]",4.34,
"COC1=C(OC)C(=O)C(Cc2ccc(OC(C)=O)c(C(=O)Nc3ccc(N4CCOCC4)cc3)c2)=C(C)C1=O [Example 110, N-[5-(5,6-Dimethoxy-3-methyl-1,4-benzoquinon-2-yl)methyl-2-acetoxybenzoyl]-4-morpholinoaniline]",4.47,
"COC1=C(OC)C(=O)C(Cc2ccc(OC(C)=O)c(C(=O)Nc3ccc(C#N)cc3)c2)=C(C)C1=O [Example 111, N-[5-(5,6-Dimethoxy-3-methyl-1,4-benzoquinon-2-yl)methyl-2-acetoxybenzoyl]-4-cyanoaniline]",4.60,
"COC1=C(OC)C(=O)C(Cc2ccc(O)c(C(=O)Nc3ccc(C(C)=O)cc3)c2)=C(C)C1=O [Example 116, N-[5-(5,6-Dimethoxy-3-methyl-1,4-benzoquinon-2-yl)methyl-2-hydroxybenzoyl]-4-acetylaniline]",4.77,

# Second part, the molecule after the results:
pIC50 [1],pIC50 (A549/NF-κBLuc cells),SMILES
4.54,,"COC1=C(OC)C(=O)C(Cc2ccc(C(=O)N3CCCCC3)c(OCc3ccccc3)c2)=C(C)C1=O [Example 57, N-[4-(5,6-Dimethoxy-3-methyl-1,4-benzoquinon-2-yl)methyl-2-benzyloxybenzoyl]piperidine]"
4.72,,"COC1=C(OC)C(=O)C(Cc2cccc(OCc3ccccc3)c2C(=O)Nc2ccc(OC)cc2)=C(C)C1=O [Example 60, N-[6-(5,6-Dimethoxy-3-methyl-1,4-benzoquinon-2-yl)methyl-2-benzyloxybenzoyl]-4-methoxyaniline]"
4.51,,"COC1=C(OC)C(=O)C(Cc2ccc(OCc3ccccc3)c(C(=O)N3CCCCC3)c2)=C(C)C1=O [Example 61, N-[5-(5,6-Dimethoxy-3-methyl-1,4-benzoquinon-2-yl)methyl-2-benzyloxybenzoyl]piperidine]"
4.46,,"COC1=C(OC)C(=O)C(Cc2cccc(C(=O)N3CCCCC3)c2O)=C(C)C1=O [Example 77, N-[3-(5,6-Dimethoxy-3-methyl-1,4-benzoquinon-2-yl)methyl-2-hydroxybenzoyl]piperidine]"
4.24,,"COC1=C(OC)C(=O)C(Cc2cccc(C(=O)N3CCOCC3)c2O)=C(C)C1=O [Example 78, N-[3-(5,6-Dimethoxy-3-methyl-1,4-benzoquinon-2-yl)methyl-2-hydroxybenzoyl]morpholine]"
4.08,,"COC1=C(OC)C(=O)C(Cc2ccc(OC)c(C(=O)Nc3ccc(OC)cc3)c2)=C(C)C1=O [Example 82, N-[5-(5,6-Dimethoxy-3-methyl-1,4-benzoquinon-2-yl)methyl-2-methoxybenzoyl]-4-methoxyaniline]"
4.19,,"COC1=C(OC)C(=O)C(Cc2ccc(OC(C)C)c(C(=O)Nc3ccc(OC)cc3)c2)=C(C)C1=O [Example 85, N-[5-(5,6-Dimethoxy-3-methyl-1,4-benzoquinon-2-yl)methyl-2-isopropoxybenzoyl]-4-methoxyaniline]"
4.57,,"COC1=C(OC)C(=O)C(Cc2ccc(Oc3ccccc3)c(C(=O)N3CCCCC3)c2)=C(C)C1=O [Example 86, N-[5-(5,6-Dimethoxy-3-methyl-1,4-benzoquinon-2-yl)methyl-2-phenoxybenzoyl]piperidine]"
4.72,,"COC1=C(OC)C(=O)C(Cc2ccc(Oc3ccccc3)c(C(=O)N3CCOCC3)c2)=C(C)C1=O [Example 87, N-[5-(5,6-Dimethoxy-3-methyl-1,4-benzoquinon-2-yl)methyl-2-phenoxybenzoyl]morpholine]"
4.35,,"COC1=C(OC)C(=O)C(Cc2ccc(Oc3cccc(OC)c3)c(C(=O)N3CCCCC3)c2)=C(C)C1=O [Example 89, N-[5-(5,6-Dimethoxy-3-methyl-1,4-benzoquinon-2-yl)methyl-2-(3-methoxyphenoxy)benzoyl]piperidine]"
4.31,,"COC1=C(OC)C(=O)C(Cc2ccc(OCc3cccnc3)c(C(=O)N3CCCCC3)c2)=C(C)C1=O [Example 92, N-[5-(5,6-Dimethoxy-3-methyl-1,4-benzoquinon-2-yl)methyl-2-(3-pyridylmethyloxy)benzoyl]piperidine]"
,4.29,COC1=C(OC)C(=O)C(Cc2ccc(OCc3ccncc3)c(C(=O)N3CCCCC3)c2)=C(C)C1=O [Example 95 (pTsOH)]
4.46,,"COC1=C(OC)C(=O)C(Cc2ccc(OCc3ccncc3)c(C(=O)N3CCCCC3)c2)=C(C)C1=O [Example 95, N-[5-(5,6-Dimethoxy-3-methyl-1,4-benzoquinon-2-yl)methyl-2-(4-pyridylmethyloxy)benzoyl]piperidine]"
4.32,,"COC1=C(OC)C(=O)C(Cc2ccc(O)c(C(=O)Nc3cc(OC)c(OC)c(OC)c3)c2)=C(C)C1=O [Example 114, N-[5-(5,6-Dimethoxy-3-methyl-1,4-benzoquinon-2-yl)methyl-2-hydroxybenzoyl]-3,4,5-trimethoxyaniline]"
4.44,,"COC1=C(OC)C(=O)C(Cc2ccc(O)c(C(=O)Nc3ccc(OC)c(OC)c3)c2)=C(C)C1=O [Example 115, N-[5-(5,6-Dimethoxy-3-methyl-1,4-benzoquinon-2-yl)methyl-2-hydroxybenzoyl]-3,4-dimethoxyaniline]"

# From patent US7064124B2, “NF-κB inhibitor containing substituted benzoic acid derivative as active ingredient” (Daiichi Suntory Pharma Co., Ltd., priority 2001, dated 2006)
